# Reference: ChEMBL document CHEMBL5393452, “Mettl3 inhibitory compounds” (2020)
# The source made the active and inactive calls. No cut-off for these calls is given here.
# Tests used:
# MOLM-13 [1] = assay: Antiproliferative activity against human MOLM-13 cells incubated for 6 days by CellTiter-Glo assay; type: functional, cell-based; settings: MOLM-13, 144 h
# [2] = molecular target: N6-adenosine-methyltransferase catalytic subunit (Homo sapiens, UniProt Q86U44); assay: Inhibition of METTL3 in human MOLM-13 cells assessed as reduction in m6A methylation level at 0.1 to 50 uM measured by NanoDrop spectrophotomery analysis; type: cell-based; settings: dose 0.1-50 µM
# Sequence of N6-adenosine-methyltransferase catalytic subunit (Q86U44 whole entry): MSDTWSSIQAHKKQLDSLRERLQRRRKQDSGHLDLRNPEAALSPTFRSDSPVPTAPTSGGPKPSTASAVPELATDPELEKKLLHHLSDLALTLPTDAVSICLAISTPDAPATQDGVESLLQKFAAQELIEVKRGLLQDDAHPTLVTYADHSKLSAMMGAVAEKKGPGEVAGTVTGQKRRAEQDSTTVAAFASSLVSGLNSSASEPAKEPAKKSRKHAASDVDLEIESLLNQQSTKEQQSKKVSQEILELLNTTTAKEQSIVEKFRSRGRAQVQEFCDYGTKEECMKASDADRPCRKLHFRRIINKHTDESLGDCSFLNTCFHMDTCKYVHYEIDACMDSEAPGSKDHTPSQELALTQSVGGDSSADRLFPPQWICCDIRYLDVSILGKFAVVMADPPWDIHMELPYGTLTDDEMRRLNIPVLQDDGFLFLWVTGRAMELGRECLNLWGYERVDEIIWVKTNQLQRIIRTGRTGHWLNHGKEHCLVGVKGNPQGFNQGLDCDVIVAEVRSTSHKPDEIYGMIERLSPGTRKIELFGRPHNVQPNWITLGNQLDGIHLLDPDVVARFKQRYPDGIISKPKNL
# KCL-22 = assay: Antiproliferative activity against IFN-gamma-treated human KCL-22 cells incubated for 6 days by CellTiter-Glo assay; type: functional, cell-based; settings: KCL-22, 144 h
# Kasumi 1 = assay: Antiproliferative activity against IFN-gamma-treated human Kasumi 1 cells incubated for 6 days by CellTiter-Glo assay; type: functional, cell-based; settings: Kasumi 1, 144 h
# NOMO-1 = assay: Antiproliferative activity against IFN-gamma-treated human NOMO-1 cells incubated for 6 days by CellTiter-Glo assay; type: functional, cell-based; settings: NOMO-1, 144 h
# THP-1 = assay: Antiproliferative activity against IFN-gamma-treated human THP-1 cells incubated for 7 days by CellTiter-Glo assay; type: functional, cell-based; settings: THP-1, 168 h
# MOLM-13 [3] = assay: Antiproliferative activity against IFN-gamma-treated human MOLM-13 cells incubated for 7 days by CellTiter-Glo assay; type: functional, cell-based; settings: MOLM-13, 168 h
# Caov-3 cell line = assay: Antiproliferative activity against human Caov-3 cells incubated for 120 hrs by CellTiter-Glo assay; type: functional, cell-based; settings: Caov-3, 120 h
Structure (SMILES),IC50 (MOLM-13 [1]),further results
O=C(NCc1cn2cc(CNCCCc3ccccc3)ccc2n1)c1cc(=O)n2ccccc2n1,4.64 µM,–
O=C(NCc1cn2cc(CNCCC3CC(F)(F)C3)ccc2n1)c1cc(=O)n2ccccc2n1,30 µM,–
NC(=O)c1cc(-c2cn(Cc3cn4cc(CNCC5CCC5)ccc4n3)nn2)c2cn[nH]c2c1,30 µM,–
O=C(NCc1cn2cc(CCNCc3ccccc3)ccc2n1)c1cc(=O)n2ccccc2n1,30 µM,–
CN(C)C(=O)c1cc(-c2cn(Cc3cn4cc(CNCC5CCC5)ccc4n3)nn2)c2cn[nH]c2c1,30 µM,–
O=C(NCc1cn2cc(CNCC3CC4(CC4)C3)ccc2n1)c1cc(=O)n2ccccc2n1,30 µM,–
COC(C)(C)CNCc1ccc2nc(CNC(=O)c3cc(=O)n4ccccc4n3)cn2c1,30 µM,–
O=C(O)c1cc(-c2cn(Cc3cn4cc(CNCC5CCC5)ccc4n3)nn2)c2cn[nH]c2c1,30 µM,–
CC(C)(C)NCc1ccc2nc(CNC(=O)c3cc(=O)n4ccccc4n3)cn2c1,30 µM,–
O=C(c1cc(-c2cn(Cc3cn4cc(CNCC5CCC5)ccc4n3)nn2)c2cn[nH]c2c1)N1CCOCC1,30 µM,–
Cc1ccc2nc(CNC(=O)c3cc(=O)n4ccccc4n3)cn2c1,–,inhibition [2]: Active
O=C(NCc1cn2cc(CNCc3ccccc3)ccc2n1)c1cc(=O)n2ccccc2n1,3.59 µM,IC50 (KCL-22): 14 µM; IC50 (Kasumi 1): 1.89 µM; IC50 (NOMO-1): 6.55 µM; IC50 (THP-1): 2.12 µM; IC50 (MOLM-13 [3]): 0.847 µM
CC(C)(O)CNCc1ccc2nc(CNC(=O)c3cc(=O)n4ccccc4n3)cn2c1,30 µM,–
CN(Cc1ccccc1)Cc1ccc2nc(CNC(=O)c3cc(=O)n4ccccc4n3)cn2c1,30 µM,–
O=C(NCc1cn2cc(CNC3CCC3)ccc2n1)c1cc(=O)n2ccccc2n1,30 µM,–
Oc1cc(-c2cn(Cc3cn4cc(CNCC5(O)CCC5)ccc4n3)nn2)c2cn[nH]c2c1,30 µM,–
O=C(NCc1cn2cc(CNCCc3ccccc3)ccc2n1)c1cc(=O)n2ccccc2n1,3.9 µM,–
N#CCC(NCC1CCC1)c1ccc2nc(CNC(=O)c3cc(=O)n4ccccc4n3)cn2c1 (stereo not given),30 µM,–
O=C(NCc1cn2cc(CNCC34CC(C3)C4)ccc2n1)c1cc(=O)n2ccccc2n1,1.33 µM,IC50 (Caov-3 cell line): 0.296 µM
